Tests used:
[1] = test system: Proteus Mirabilis; assay: Promoting wave test (bio-wave model); assay type: cell-based; conditions: final concentration 0.5% in LB plate, 37° C., 9 hours, compared with control sample
Description: 1. Experimental Materials and Method:
1.1 Sample: Pure Compound of Formula (I)
1.2 Experimental Materials:
• Strain: Proteus Mirabilis that meets the following biochemical reaction characteristics: dynamics (+), urease (+), lactose (−), glucose (+), H2S (−), phenylalanine deaminase (+). • Culture medium: modified LB culture medium (components: 1% tryptones, 0.5% yeast extract, 1% sodium chloride, 0.1% glucose, 0.002% TTC, and pH=7.2 to 7.4). 1.3 Experimental Method: • Control sample: the Proteus Mirabilis were inoculated at the center of LB plate, and incubated at 37° C. for 9 hours; • Test sample: the compound of formula (I) with a final concentration of 0.5% was added to the LB plate, then the Proteus Mirabilis were inoculated by the same method, and cultured at 37° C. for 9 hours. 2. […] It is anticipated that this wave-promoting function could treat organ lesions caused by toxicants and drugs.

[2] = Acute toxicity test; assay type: in vivo
Description: (§1) The toxicological test of the compound of formula (I) includes: • 1. Acute toxicity test: including tests of oral administration, intravenous injection administration, and maximum limit amount for administration; • 2. Ames test; • 3. Micronucleus test of mouse bone marrow cell; • 4. Abnormality test of mouse sperm; • 5. Aberration test of mouse testis chromosome; • 6. Chronic lethal test; • 7. Sub-chronic toxicity (feed for 90 days) test; • 8. Traditional deformity-inducing test.

[3] = Long-period toxicity test; assay type: in vivo; conditions: maximum dosage up to 1 g/kg, treatment and observation for four weeks
Description: as §1

[4] = test system: mice; assay: Reproduction test; assay type: in vivo; conditions: mice fed 7 mg/kg for 3 generations
[5] = test system: Kunming mice fed with methanol; assay: Methanol poisoning test; assay type: in vivo; conditions: 15 mice, i.p. 0.1 g/ml aqueous solution
Method: 1. Methanol Poisoning Test
(§2) 30 Kunming mice were randomly divided into two groups, i.e., 15 mice in test group (I) and 15 mice in test group (II), and another 15 mice were used as control. Each mouse was fed with methanol in a dose of 0.2 ml/20 g bodyweight. […] The mice of the test group (I) were intra-peritoneally injected with an aqueous solution of N-acetyl-D-glucosamine having a concentration of 0.1 g/ml in a dose of 0.1 ml/20 g bodyweight, just after they were fed with methanol. […] The mice of the test group (II) were intra-peritoneally injected with an aqueous solution of N-acetyl-D-glucosamine having a concentration of 0.1 g/ml in a dose of […], just after they were fed with methanol. […] 2. Rogor Poisoning Test 30 Kunming mice were randomly divided into three groups, i.e., 10 mice in control group, 10 mice in test group (I) and 10 mice in test group (II). The mice were orally fed with 10000 times diluted rogor stock solution (commercially obtained from Chongqing Agriculture Chemicals Group, 500 ml/bottle, standard: GB15583-1995) in a dose of 0.5 ml per mouse for consecutive 3 days. […] The mice of the test groups were treated by intra-peritoneal injection of an aqueous solution of N-acetyl-D-glucosamine having a concentration of 5 g/100 ml in a dose of 0.2 ml for the test group (I) and a dose of 2 ml for the test group (II). […] 3. Lead Poisoning Test 30 Kunming mice were made as lead poisoning models by a method of feeding litharge. […] The mice of the test group (I) were treated by intra-peritoneal injection of N-acetyl-D-glucosamine in a dose of 0.2 ml×10% (weight/volume), and the mice of the test group (II) were treated by intra-peritoneal injection with N-acetyl-D-glucosamine in a dose of 2 ml×10% (weight/volume). The death rate of mice was separately 7/10 and 2/10 within 3 days, and the death rate of mice was 1/3 and 0/8 within the following 4 days. […] According to the above examples, N-acetyl-D-glucosamine can effectively eliminate toxic effects of at least toxicants such as metal ions, organophosphorus pesticides, methanol, etc. that have different action mechanisms.

[6] = test system: Kunming mice fed with rogor; assay: Rogor poisoning test; assay type: in vivo; conditions: 10 mice, i.p. 5 g/100 ml aqueous solution
Method: 30 Kunming mice were randomly divided into two groups, i.e., 15 mice in test group (I) and 15 mice in test group (II), and another 15 mice were used as control. Each mouse was fed with methanol in a dose of 0.2 ml/20 g bodyweight. […] The mice of the test group (I) were intra-peritoneally injected with an aqueous solution of N-acetyl-D-glucosamine having a concentration of 0.1 g/ml in a dose of 0.1 ml/20 g bodyweight, just after they were fed with methanol. […] The mice of the test group (II) were intra-peritoneally injected with an aqueous solution of N-acetyl-D-glucosamine having a concentration of 0.1 g/ml in a dose of […], just after they were fed with methanol. […] 2. Rogor Poisoning Test 30 Kunming mice were randomly divided into three groups, i.e., 10 mice in control group, 10 mice in test group (I) and 10 mice in test group (II). The mice were orally fed with 10000 times diluted rogor stock solution (commercially obtained from Chongqing Agriculture Chemicals Group, 500 ml/bottle, standard: GB15583-1995) in a dose of 0.5 ml per mouse for consecutive 3 days. […] The mice of the test groups were treated by intra-peritoneal injection of an aqueous solution of N-acetyl-D-glucosamine having a concentration of 5 g/100 ml in a dose of 0.2 ml for the test group (I) and a dose of 2 ml for the test group (II). […] 3. […]

[7] = test system: Kunming mice lead poisoning models (litharge); assay: Lead poisoning test; assay type: in vivo
Method: as §2

[8] = test group (I), 0.1 ml/20 g bodyweight
[9] = test group (II), 2 ml/20 g bodyweight
[10] = test group (I), i.p. 0.2 ml×10% (weight/volume)
[11] = test group (II), i.p. 2 ml×10% (weight/volume)

## CC(=O)N[C@@H]1[C@@H](O)[C@H](O)[C@@H](CO)O[C@H]1O [compound of formula (I), N-acetyl-D-glucosamine]
[1]
  wave pattern of the colony (bio-wave promoting function): many fine waves on each ring
[2]
  dosage at which the acute toxicosis reaction had not appeared: more than 2 g/kg
[3]
  intoxication reaction in long-period toxicity test: no intoxication reaction
[4]
  influence on pregnancy, birth, nurse and growth of baby mice: no influence
[5]; [8]
  mice sequentially died: 5 mice
  mice with obvious psychiatric symptoms: 2 mice
[5]; test group (I), 0.1 ml/20 g bodyweight, just after methanol 0.2 ml/20 g
  mice blind after 2 hours: 8 mice
[5]; [9]
  blind mice: no mouse was blind
  mice died within 12 hours: 2 mice
  mice with delirium and myasthenia of limbs: 4 mice
[6]; test group (I), 0.2 ml
  mice died: 4 mice
[6]; test group (II), 2 ml
  mice died: 1 mouse
[7]; [10]
  death rate within 3 days: 7/10
  death rate within the following 4 days: 1/3
[7]; [11]
  death rate within 3 days: 2/10
  death rate within the following 4 days: 0/8
